Experimental data: patent US11046701B2, “Salt of cetagliptin, preparation method thereof, pharmaceutical composition, and use thereof” (CGENETECH (SUZHOU, CHINA) CO., LTD., priority 2018, dated 2021)
Values joined by “and” are separate entries in the source; they are usually repeats but may differ in a detail not shown here. Equal entries are not always repeated. Where two headings read alike, the source gives them in different places.

How the values were obtained:
[1] = Stability of phosphate crystal form B under storage conditions (XRPD, HPLC purity); assay type: physicochemical
Description: High performance liquid chromatography (HPLC): the high performance liquid chromatogram was acquired by Agilent 1260 HPLC.
(§1) The crystal form B of phosphate prepared in this example was put into a 1.5 mL small bottle and the small bottles was placed under different conditions: 40° C./75% RH or 25° C./60% RH for one week in an open state, or 80° C. for 24 h. The obtained samples were subjected to XRPD test and HPLC test, and the sealed samples placed at 5° C. were used as reference samples (Initial) for HPLC purity test. […] The weight gain at 25° C./80% RH is 6.5% compared to 0% RH.

[2] = Dynamic vapor sorption (DVS); assay type: physicochemical
Description: Dynamic vapor sorption (DVS): Dynamic vapor sorption (DVS) curves were acquired by DVS Intrinsic of SMS (Surface Measurement Systems). The relative humidity at 25° C. was corrected by deliquescence points of LiCl, Mg(NO3)2 and KCl.
as §1

[3] = PK/PD experiment of ICR mice: plasma concentration; assay type: in vivo, CD-1 (ICR) mice; conditions: CD-1 (ICR), mouse; for AUC: read-out: Drug exposure (AUCeff0-3 h)
Description: (§2) Experimental animals: CD-1 (ICR) mice aged for 4 weeks and weighed for about 18-22 g.
(§3) Grouping and administration scheme: the mice were fed adaptively, randomly grouped according to the weight on the day before experiment, and fasted overnight. […] After the experimental grouping, the group provided separately for detecting the initial basic value of DPPIV was carried out blood sampling, and other animals were intragastrically administrated with the drug at an administration volume of 10 mL/kg, the blood was sampled after the administration, and all other animals were stimulated with glucose administration; the blood was sampled at 20 min, 40 min, 60 min and 120 min after the glucose administration, respectively, and the plasma concentration and the DPPIV activity were detected by using plasma.
Research on pharmacodynamics-plasma concentration correlation: blood samples were collected at time points of 1 h, 1.33 h, 1.67 h, 2 h and 3 h after administration, and the plasma concentration was measured. The drug exposure value (AUCeff0-3h) of the DPPIV-P1 increased with the increase of dose, which was 16.09 ng·h/mL, 52.65 ng·h/mL, 162.3 ng·h/mL and 542.28 ng·h/mL, respectively.

[4] = Weight of ICR mice of each group; assay type: in vivo, CD-1 (ICR) mice; conditions: individual animals
Description: as §2, §3

DIO mice [5] = assay: Long-term administration on DIO mice: fasting blood glucose; assay type: in vivo; conditions: for inhibition rate of the rise of the blood glucose: end of experiment (28 days), vs model control group; for fasting blood glucose data after the drug was administrated for 28 days: individual animals
Description: (§4) A solution with a certain concentration was prepared from the crystal form B of the phosphate, and the administration volume was 10 mL/kg.
(§5) Experimental animals: C57BL16 mice aged for 5 weeks and weighed for about 13-16 g.
(§6) Grouping and administration scheme: the mice were fed adaptively and divided into a normal control group and a model group which were fed with high-fat feed (Research diets, D 12492). When the fasting blood glucose of the mice was greater than or equal to 7 mM, it was considered that the mice had become DIO mice. The DIO mice could be selected for the hypoglycemic effect test. The DIO mice were stratified and randomly grouped according to the blood glucose and the weight. […] The weight and the fasting blood glucose were measured weekly; the food amount, the remaining food amount and the food intake were recorded; the mice were fasted overnight at the end of administration, the blood was sampled, and the free fatty acid (NEFA), total cholesterol (TCHO), triglyceride (TG), insulin and DPPIV activity were measured by using serum.

DIO mice [6] = assay: Long-term administration on DIO mice: serum metabolic parameters (NEFA, TCHO, TG, insulin); assay type: in vivo, C57BL16 mice; conditions: end of long-term administration; for Serum NEFA / Serum TCHO / Serum TG / Serum insulin: fasted overnight
Excerpt: Experimental animals: […] Table 18 was a total data table of the metabolic parameters.

[7] = Long-term administration on DIO mice: weight, food intake, tolerance; conditions: for weight after the drug was administrated for 28 days: individual animals
Description: as §4, §5, §6

C[C@@H]1c2cnc(C(F)(F)F)n2CCN1C(=O)C[C@H](N)Cc1cc(F)c(F)cc1F [DPPIV-P1, (8R)-7-[(3R)-3-amino-1-oxo-4-(2,4,5-trifluorophenyl)butyl]-5,6,7,8-tetrahydro-8-methyl-3-(trifluoromethyl)imidazo[1,5-a]pyrazine]
Crystal form ([1]; 25° C./60% RH, one week): Phosphate crystal form B | Purity (area %) ([1]; 25° C./60% RH, one week, open): 99.65 area % | Crystal form ([1]; 40° C./75% RH, one week): Phosphate crystal form B | Purity (area %) ([1]; 40° C./75% RH, one week, open): 99.64 area % | Appearance ([1]; 80° C. for 24 h): changed from white solid into yellow solid | Crystal form ([1]; 80° C., 24 h): Phosphate crystal form B | Purity (area %) ([1]; 80° C., 24 h): 99.48 area % | Crystal form ([1]; Initial): Phosphate crystal form B | Purity (area %) ([1]; Initial (sealed reference sample placed at 5° C.)): 99.78 area % | weight gain (DVS) ([2]; 25° C./80% RH compared to 0% RH): 6.5% | crystal form before and after the DVS test (XRPD) ([2]; after DVS test): the crystal form remained unchanged | concentration at 1 h ([3]; oral dose 0.1 mg/kg): 8.28 ± 0.96 ng/mL | concentration at 1.33 h ([3]; oral dose 0.1 mg/kg): 6.51 ± 1.58 ng/mL | concentration at 1.67 h ([3]; oral dose 0.1 mg/kg): 6.46 ± 0.2 ng/mL | concentration at 2 h ([3]; oral dose 0.1 mg/kg): 5.73 ± 0.65 ng/mL | concentration at 3 h ([3]; oral dose 0.1 mg/kg): 4.85 ± 0.25 ng/mL | AUC ([3]; oral dose 0.1 mg/kg): 16.1 ng·h/mL | concentration at 1 h ([3]; oral dose 0.3 mg/kg): 26.4 ± 6.47 ng/mL | concentration at 1.33 h ([3]; oral dose 0.3 mg/kg): 25 ± 3.42 ng/mL | concentration at 1.67 h ([3]; oral dose 0.3 mg/kg): 17.9 ± 2.43 ng/mL | concentration at 2 h ([3]; oral dose 0.3 mg/kg): 20.5 ± 0.32 ng/mL | concentration at 3 h ([3]; oral dose 0.3 mg/kg): 14.2 ± 1.48 ng/mL | AUC ([3]; oral dose 0.3 mg/kg): 52.6 ng·h/mL | concentration at 1 h ([3]; oral dose 1 mg/kg): 72.8 ± 7.04 ng/mL | concentration at 1.33 h ([3]; oral dose 1 mg/kg): 71.9 ± 2.71 ng/mL | concentration at 1.67 h ([3]; oral dose 1 mg/kg): 75.2 ± 6.09 ng/mL | concentration at 2 h ([3]; oral dose 1 mg/kg): 57.9 ± 2.06 ng/mL | concentration at 3 h ([3]; oral dose 1 mg/kg): 52.2 ± 5.54 ng/mL | AUC ([3]; oral dose 1 mg/kg): 162 ng·h/mL | concentration at 1 h ([3]; oral dose 3 mg/kg): 231 ± 16.6 ng/mL | concentration at 1.33 h ([3]; oral dose 3 mg/kg): 292 ± 47.2 ng/mL | concentration at 1.67 h ([3]; oral dose 3 mg/kg): 242 ± 17.7 ng/mL | concentration at 2 h ([3]; oral dose 3 mg/kg): 201 ± 44.7 ng/mL | concentration at 3 h ([3]; oral dose 3 mg/kg): 151 ± 26.4 ng/mL | AUC ([3]; oral dose 3 mg/kg): 542 ng·h/mL | weight ([4]; 0.1 mg/kg group, 0.1 mg/kg, in g (unit assumed)): 22.0 and 24.5 and 24.7 and 25.1 and 26.3 and 26.9 and 24.6 and 23.4 and 24.4 and 25.0 and 23.0 and 24.8 and 24.9 and 26.2 and 24.2 | weight ([4]; 0.3 mg/kg group, 0.3 mg/kg): 25.3 (2×) and 24.0 and 24.1 and 23.9 and 24.9 (2×) and 24.6 and 26.4 and 26.0 and 25.5 and 22.0 and 22.6 and 25.0 and 24.4 | weight ([4]; 1 mg/kg group, 1 mg/kg): 26.9 and 25.1 (2×) and 23.5 and 23.6 (2×) and 24.9 (2×) and 24.8 and 26.1 and 25.8 and 26.4 and 25.2 and 22.4 and 23.4 | weight ([4]; 3 mg/kg group, 3 mg/kg, in g (unit assumed)): 25.0 and 24.8 and 23.0 and 25.4 and 21.7 and 27.3 and 22.3 and 22.4 and 25.7 and 24.0 and 23.3 and 24.1 and 25.2 and 27.2 and 24.5 | Fasting blood glucose (DIO mice [5]; 0.3 mg/kg daily intragastric, D 1): 8.3 ± 1.1 mmol/L | Fasting blood glucose (DIO mice [5]; 0.3 mg/kg daily intragastric, D 3): 8.4 ± 0.9 mmol/L | Fasting blood glucose (DIO mice [5]; 0.3 mg/kg daily intragastric, D 7): 8.4 ± 1.0 mmol/L | Fasting blood glucose (DIO mice [5]; 0.3 mg/kg daily intragastric, D 14): 8.9 ± 1.1 mmol/L | Fasting blood glucose (DIO mice [5]; 0.3 mg/kg daily intragastric, D 21): 8.5 ± 1.0 mmol/L | Fasting blood glucose (DIO mice [5]; 0.3 mg/kg daily intragastric, D 28): 8.3 ± 0.8 mmol/L | inhibition rate of the rise of the blood glucose (DIO mice [5]; 0.3 mg/kg): 14.2% | Fasting blood glucose (DIO mice [5]; 3 mg/kg daily intragastric, D 1): 8.3 ± 1.1 mmol/L | Fasting blood glucose (DIO mice [5]; 3 mg/kg daily intragastric, D 3): 8.3 ± 0.9 mmol/L | Fasting blood glucose (DIO mice [5]; 3 mg/kg daily intragastric, D 7): 8.6 ± 2.2 mmol/L | Fasting blood glucose (DIO mice [5]; 3 mg/kg daily intragastric, D 14): 9.1 ± 1.6 mmol/L | Fasting blood glucose (DIO mice [5]; 3 mg/kg daily intragastric, D 21): 8.6 ± 1.0 mmol/L | Fasting blood glucose (DIO mice [5]; 3 mg/kg daily intragastric, D 28): 8.7 ± 0.9 mmol/L | inhibition rate of the rise of the blood glucose (DIO mice [5]; 3 mg/kg): 9.9% | Fasting blood glucose (DIO mice [5]; 30 mg/kg daily intragastric, D 1): 8.3 ± 1.0 mmol/L | Fasting blood glucose (DIO mice [5]; 30 mg/kg daily intragastric, D 3): 7.8 ± 1.5 mmol/L | Fasting blood glucose (DIO mice [5]; 30 mg/kg daily intragastric, D 7): 7.9 ± 0.8 mmol/L | Fasting blood glucose (DIO mice [5]; 30 mg/kg daily intragastric, D 14): 7.7 ± 0.7 mmol/L | Fasting blood glucose (DIO mice [5]; 30 mg/kg daily intragastric, D 21): 8.1 ± 0.6 mmol/L | Fasting blood glucose (DIO mice [5]; 30 mg/kg daily intragastric, D 28): 7.9 ± 0.6 mmol/L | inhibition rate of the rise of the blood glucose (DIO mice [5]; 30 mg/kg): 18.5% | fasting blood glucose data after the drug was administrated for 28 days (DIO mice [5]; 0.3 mg/kg): 10.3 and 8 (3×) and 7.3 (2×) and 8.8 and 8.7 and 8.3 and 8.6 and 7.9 | fasting blood glucose data after the drug was administrated for 28 days (DIO mice [5]; 3 mg/kg): 9.2 and 7.8 (2×) and 9.8 and 8.9 and 9 and 7.3 and 9.7 and 8 and 8.3 and 10 | fasting blood glucose data after the drug was administrated for 28 days (DIO mice [5]; 30 mg/kg, listed as DPPIV-PI): 8.5 and 7.3 and 7.4 (3×) and 7.6 and 8.9 and 8.2 (2×) and 7.5 and 7.8 | decrease of insulin compared with the model control group (DIO mice [6]; 0.3 mg/kg): 28.3% | Serum NEFA (DIO mice [6]; 0.3 mg/kg): 1.21 ± 0.07 mmol/L | Serum TCHO (DIO mice [6]; 0.3 mg/kg): 5.01 ± 0.58 mmol/L | Serum TG (DIO mice [6]; 0.3 mg/kg): 1.04 ± 0.13 mmol/L | Serum insulin (DIO mice [6]; 0.3 mg/kg): 3.2 ± 2.44 ng/mL | Serum NEFA (DIO mice [6]; 3 mg/kg): 1.08 ± 0.14 mmol/L | Serum TCHO (DIO mice [6]; 3 mg/kg): 5.06 ± 0.65 mmol/L | Serum TG (DIO mice [6]; 3 mg/kg): 0.94 ± 0.15 mmol/L | Serum insulin (DIO mice [6]; 3 mg/kg): 4.7 ± 3.55 ng/mL | decrease of total cholesterol (TCHO) compared with the model control group (DIO mice [6]; 30 mg/kg): 18.4% | Serum NEFA (DIO mice [6]; 30 mg/kg): 1.01 ± 0.11 mmol/L | Serum TCHO (DIO mice [6]; 30 mg/kg): 4.36 ± 0.45 mmol/L | Serum TG (DIO mice [6]; 30 mg/kg): 0.83 ± 0.11 mmol/L | Serum insulin (DIO mice [6]; 30 mg/kg): 4.9 ± 4.04 ng/mL | Food intake ([7]; 0.3 mg/kg): 2.2 ± 0.3 g/day | weight ([7]; 0.3 mg/kg daily, D1): 38.9 ± 3.8 g | weight ([7]; 0.3 mg/kg daily, D7): 37.4 ± 3.4 g | weight ([7]; 0.3 mg/kg daily, D14): 38.2 ± 4.2 g | weight ([7]; 0.3 mg/kg daily, D21): 40.2 ± 4.2 g | weight ([7]; 0.3 mg/kg daily, D28): 39.5 ± 5.0 g | weight ([7]; 0.3 mg/kg, total data table of metabolic parameters (end of experiment)): 39.5 ± 5.0 g | Food intake ([7]; 3 mg/kg): 2.2 ± 0.3 g/day | weight ([7]; 3 mg/kg daily, D1): 41.5 ± 3.5 g | weight ([7]; 3 mg/kg daily, D7): 40.9 ± 4.2 g | weight ([7]; 3 mg/kg daily, D14): 43.1 ± 4.9 g | weight ([7]; 3 mg/kg daily, D21): 44.2 ± 5.1 g | weight ([7]; 3 mg/kg daily, D28): 45.0 ± 5.4 g | weight ([7]; 3 mg/kg, total data table of metabolic parameters (end of experiment)): 45.0 ± 5.4 g | Food intake ([7]; 30 mg/kg): 2.2 ± 0.4 g/day | weight ([7]; 30 mg/kg daily, D1): 41.5 ± 3.1 g | weight ([7]; 30 mg/kg daily, D7): 40.5 ± 3.0 g | weight ([7]; 30 mg/kg daily, D14): 41.2 ± 4.4 g | weight ([7]; 30 mg/kg daily, D21): 41.3 ± 3.5 g | weight ([7]; 30 mg/kg daily, D28): 42.9 ± 5.6 g | weight ([7]; 30 mg/kg, total data table of metabolic parameters (end of experiment)): 42.9 ± 5.6 g | weight after the drug was administrated for 28 days ([7]; 0.3 mg/kg): 39.9 (2×) and 31.0 and 34.8 and 41.6 and 32.2 and 40.5 and 40.8 and 45.6 and 47.1 and 41.0 | weight after the drug was administrated for 28 days ([7]; 3 mg/kg): 46.8 (2×) and 42.6 and 54.1 and 48.3 and 34.4 and 42.2 and 43.1 and 46.4 and 39.7 and 50.2 | weight after the drug was administrated for 28 days ([7]; 30 mg/kg, in g): 46.6 and 36.5 and 43.6 and 36.8 and 36.7 and 39.3 and 38.7 and 48.2 and 51.8 and 48.6 and 41.0
